The target in series [1] is Neurospora crassa vacuolar membrane V-ATPase. As to the kind of experiment: V-ATPase inhibitory assay, Neurospora crassa vacuolar membrane. The format is biochemical. The note with it: read-out: V-ATPase (Ki, nM) NCVM. As for the experimental part:
(§1) The V-ATPase inhibitory assays were performed on representative compound(s) of the present invention using non-mammalian or mammalian (e.g., bovine cromaffin granule) V-ATPases as described by Bowman et al., Proc. Natl. Acad. Sci. USA, 85, 7972-7976, 1988.

Series [2] has as its target Chromaffin Granule Membrane V-ATPase. As to the kind of experiment: V-ATPase inhibitory assay, chromaffin granule membrane. It counts as biochemical. As to conditions: Chromaffin Granule Membrane V-ATPase (bovine); read-out: V-ATPase (Ki, nM) CGM. As for the experimental part: as §1
Series [3] has as its system leukemia (MOLT-4) human tumor cell line. Description: 2-day in vitro cytotoxicity assay. It counts as cell-based. As to conditions: MOLT-4 leukemia cell line, 2-day in vitro assay. The protocol: (§2) A 2.0 mg solution of chondropsin A in pyridine-d5 was kept at room temperature and ^1H NMR spectra were periodically acquired. […] After 7 days, the pyridine was removed under reduced pressure and the residue was purified by HPLC as described above to give 0.6 mg of a compound that by FABMS, HPLC retention time, ^1H NMR, and HSQC data, was identical to chondropsin D. Thus, chondropsin D can be prepared from chondropsin A via a base-catalyzed transesterification reaction in which the ester migrates from O-34 to O-67. The characterization of chondropsin D was facilitated by spectral analysis of the product of the corresponding base-catalyzed transesterification reaction of the dimethyl ester of chondropsin A (FIG. 1A, compound (3)), which produced the dimethyl ester of chondropsin D (FIG. 1A, compound (9)). Chondropsin D was evaluated for cytotoxic activity towards melanoma (LOX) and leukemia (MOLT-4) human tumor cell lines in a 2-day in vitro assay, the procedure for which is described in Bokesch et al., J. Nat. Prod., 62, 633-635 (1999).

The test system of series [4] is melanoma (LOX) human tumor cell line. As to the kind of experiment: 2-day in vitro cytotoxicity assay. It counts as cell-based. As to conditions: 2-day in vitro assay. As for the experimental part: as §2

≈ marks a conversion by molar mass, not a printed value.

With `CC1=CCC(OC(=O)CC(O)C(=O)O)C(C)C(C(NC(=O)C(C)C(O)CCC(C)C(O)C(C)=CC(C)C(O)C(CC(C)C)NC(=O)C=CC(C)(C)C(=O)C(C)C(O)C(C)C)C(C)O)OC(=O)C(C(O)C(=O)O)NC(=O)C=CC=CCCC=CC=CCC2CC(C)CC(CC(O)C(C)C(O)C(C)=CC(C)C1O)O2` (centres unmarked) [Chondropsin C, chondropsin C], the Ki in series [1] is 80 nM; in series [2], 3000 nM.

As for `COC(=O)C(O)CC(=O)OC1CC=C(C)C(O)C(C)C=C(C)C(O)C(C)C(O)CC2CC(C)CC(CC=CC=CCCC=CC=CC(=O)NC(C(O)C(=O)OC)C(=O)OC(C(NC(=O)C(C)C(O)CCC(C)C(O)C(C)=CC(C)C(O)C(NC(=O)C=CC(C)(C)C(=O)C(C)C(O)C(C)(C)C(=O)OC)C(O)C(C)C)C(C)O)C1C)O2` (centres unmarked) [Chondropsin A, dimethyl ester, chondropsin A dimethyl ester], the Ki in series [1] was determined as 50 nM; in series [2], 500 nM.

Regarding `CC/C=C\C=C/C(=O)N/C=C/C[C@H]1C[C@@H](O)[C@@H](C)C/C=C/Cc2cccc(O)c2C(=O)O1` [Salicylihalamide A, salicylihalamide A, reference compound], the Ki in series [1] was more than 10000 nM; in series [2], 6.5 nM.

For `COC(=O)C(C)(C)C(O)C(C)C(=O)C(C)(C)C=CC(=O)NC(CC(C)C)C(O)C(C)C=C(C)C(O)C(C)CCC(O)C(C)C(=O)NC(C(C)O)C1OC(=O)C(C(O)C(=O)O)NC(=O)C=CC=CCCC=CC=CCC2CC(C)CC(CC(O)C(C)C(O)C(C)=CC(C)C(O)C(C)=CCC(OC(=O)CC(O)C(=O)O)C1C)O2` (centres unmarked) [Chondropsin A, 73-deoxy, 73-deoxychondropsin A], the Ki worked out at 100 nM in series [1] and 3000 nM in series [2].

Take `C/C=C/[C@H]1O[C@@](O)([C@@H](C)[C@H](O)[C@H](C)[C@H]2OC(=O)/C(OC)=C/C(C)=C/[C@@H](C)[C@@H](O)[C@@H](CC)[C@@H](O)[C@H](C)C/C(C)=C/C=C/[C@@H]2OC)C[C@@H](O[C@H]2C[C@@H](O)[C@H](OC(N)=O)[C@@H](C)O2)[C@@H]1C` [Concanamycin A, concanamycin A, reference compound]: the results for the Ki in series [1] and in series [2] were 4 nM and 6 nM, respectively.

On to `COC(=O)C(C)(C)C(O)C(C)C(=O)C(C)(C)C=CC(=O)NC(C(O)C(C)C)C(O)C(C)C=C(C)C(O)C(C)CCC(O)C(C)C(=O)NC(C(C)O)C1OC(=O)C(C(O)C(=O)O)NC(=O)C=CC=CCCC=CC=CCC2CC(C)CC(CC(O)C(C)C(O)C(C)=CC(C)C(O)C(C)=CCC(O)C1C)O2` (centres unmarked) [Chondropsin B, chondropsin B], for which the Ki in series [1] was found to be 200 nM; in series [2] it was 6000 nM.

In the case of `COC(=O)C(C)(C)C(O)C(C)C(=O)C(C)(C)C=CC(=O)NC(C(O)C(C)C)C(O)C(C)C=C(C)C(O)C(C)CCC(O)C(C)C(=O)NC1C(C)OC(=O)C(C(O)C(=O)O)NC(=O)C=CC=CCCC=CC=CCC2CC(C)CC(CC(O)C(C)C(O)C(C)=CC(C)C(O)C(C)=CCC(OC(=O)CC(O)C(=O)O)C(C)C1O)O2` (centres unmarked) [Chondropsin D, chondropsin D], the Ki was 140 nM in series [1] and more than 10000 nM in series [2]. In addition, the entries for the “IC50 (cytotoxic activity)” value in series [3] and in series [4] were approximately 0.25 µg/mL (≈ 0.157 µM) and “approximately 10 ng/mL”, respectively.

Regarding `COC(=O)C(C)(C)C(O)C(C)C(=O)C(C)(C)C=CC(=O)NC(C(O)C(C)C)C(O)C(C)C=C(C)C(O)C(C)CCC(O)C(C)C(=O)NC(C(C)O)C1OC(=O)C(C(O)C(=O)O)NC(=O)C=CC=CCCC=CC=CCC2CC(C)CC(CC(O)C(C)C(O)C(C)=CC(C)C(O)C(C)=CCC(OC(=O)CC(O)C(=O)O)C1C)O2` (centres unmarked) [Chondropsin A, chondropsin A], the results for the Ki in series [1] and in series [2] were 800 nM and more than 10000 nM, respectively.

Consider `CO/C1=C\C(C)=C\[C@@H](C)[C@@H](O)[C@@H](C)C/C(C)=C/C=C/[C@H](OC)[C@@H]([C@@H](C)[C@@H](O)[C@H](C)[C@@]2(O)C[C@@H](O)[C@H](C)[C@@H](C(C)C)O2)OC1=O` [Bafilomycin A1, bafilomycin A1, reference compound], for which the Ki in series [1] turned out to be 13 nM; in series [2] it was 6 nM.

As usually defined, the Ki is the equilibrium dissociation constant of an inhibitor or competing ligand from its target.

Values taken from US8741947B2, “Biologically active macrolides, compositions, and uses thereof” (The United States of America, as represented by the …, priority 2000, dated 2014).
